Data from patent US9796717B2, “Tricyclic heterocycles as anticancer agents” (ICAHN SCHOOL OF MEDICINE AT MOUNT SINAI, priority 2013, dated 2017).
Where two headings read alike, the source gives them in different places.

Legend:
H1650 lung cancer cells [1] = test system: H1650 lung cancer cells; design: % @ 20 μM: scale not given here; settings: cited from earlier work; for IC50: examples up to number 80 taken from PCT WO2013/025882, read-out: IC50 (μM), Cell Viability Data
H1650 lung cancer cells [2] = assay: Cell viability assay (MTT, IC50 determination); format: cell-based; settings: Homo sapiens, NCI-H1650, 48 h after drug treatment, examples 100-103
Experimental: Cell Viability Assays (IC50 Determination)
Cell viability assays were performed according to Denizot, F. and R. Lang, Journal of Immunological Methods, 1986. 89(22): p. 271-277. H1650 lung cancer cells were plated at 150,000 cells per well in a 12 well plate. Twenty-four hours after plating, cells were treated as described with increasing concentrations of drug and control. Forty-eight hours after drug treatment, cells were treated with 100 μL of 3-(4,5-Dimethylthiazol-2-yl)-2,5-diphenyltetrazolium bromide (MTT) and incubated for 2 hours at 37 C. The MTT solution was subsequently replaced with 300 μl of n-propyl alcohol and re-aliquoted to a 96 well plates. Spectrophotometric analysis of each solution was performed using a 96 well plate reader at 600 nm in triplicate. The examples up to number 80 in Table 1 below are taken from PCT WO2013/025882, published 21 Feb. 2013. They illustrate biological activities of compounds that share a tricyclic scaffold.

EGFR-L858R/CCSP mice = assay: In vivo lung cancer model (MRI tumor volume); settings: 100 mg/kg i.p. every other day for two weeks; DMSO control 20% increase
Experimental: The in vivo lung cancer model is described in Politi et al., Genes Dev. Jun. 1, 2006 20: 1496-1510. EGFR-L858R/CCSP mice were fed doxycycline-impregnanted food pellets to induce tumor formation. After 8-12 weeks, mice were imaged in a Bruker 4.7T Biospec scanner to confirm lung nodule development. After tumor confirmation, the compound of Example 30 was prepared in DMSO (Sigma) and administered i.p. at 100 mg/kg every other day for two weeks. After treatment, the mice were re-imaged by MRI, and pre-treatment and post-treatment lung volumes were calculated by visible lung opacity present in each axial image using Osirix 4.1.1. DMSO control animals show a 20% increase in tumor volume over two week treatment period. Animals treated with the compound of Example 30 show a 60% decrease in tumor volume over two week treatment period.

[3] = test system: BALB/c hearts transplanted into fully allogeneic B6 recipients; assay: Heart allograft survival; format: in vivo, mice; settings: 100 mg/kg i.p.; n=4; untreated rejected by day 8; p<0.05 vs control
Experimental: To test for a clinically relevant in vivo effect, BALB/c hearts were transplanted into fully allogeneic B6 recipients. While untreated animals rejected their grafts by day 8 n=4, the grafts in the mice treated with 100 mg/kg i.p. of Example 30 lasted 18 days n=4, p<0.05 vs control, a statistically and clinically significant effect.

CD4 naïve cells = assay: Induction of Treg (Foxp3+) from naïve CD4 T cells; format: cell-based; settings: control compounds, concentration not given; 3 days
Experimental: Example 30 has been tested for its ability to induce Treg from naïve CD4 T cells. […] Fifty thousand CD4 naïve cells (CD62Lhi,CD25 low, CD4 positive) were incubated with 2 ng/mL TGFβ, 1 ug/mL anti-CD3, 100 ng/mL IL-2, 50000 APCs per well and the compounds 10 μM, 5 μM and 2.5 μM concentrations. The cells were incubated for 3 days and then stained for CD4 and Foxp3 expression. Results were expressed as fold increase over the % induced in control (DMSO) wells (typically 20-25% Foxp3+). AKTi, a small molecule AKT inhibitor, was used as a positive control; it induced about a 4-fold increase. […] The effects of Example 30 on iTreg induction are amplified as the TGFβ concentration decreases.

O=S(=O)(NCCCN1c2ccccc2CCc2ccc(Cl)cc21)c1ccc(Cl)cc1F [Example 28, N-(3-(3-chloro-10,11-dihydro-5H-dibenzo[b,f]azepin-5-yl)propyl)-4-chloro-2-fluorobenzenesulfonamide]
IC50 (μM), Cell Viability Data (H1650 lung cancer cells [1]; MTT, 48 h after drug treatment, examples up to number 80 taken from PCT WO2013/025882): INACTIVE

O=S(=O)(NCCCN1c2ccccc2CCc2cccnc21)c1ccc(OC(F)(F)F)cc1 [Example 100, N-(3-(5H-Benzo[b]pyrido[3,2-f]azepin-11(6H)-yl)propyl)-4-(trifluoromethoxy)benzenesulfonamide]
IC50 (H1650 lung cancer cells [2]): 20 µM

O=S(=O)(NCCCN1c2ccccc2CCc2ncccc21)c1ccc(OC(F)(F)F)cc1 [Example 102, N-(3-(10,11-Dihydro-5H-benzo[b]pyrido[2,3-f]azepin-5-yl)propyl)-4-(trifluoromethoxy)benzenesulfonamide]
IC50 (H1650 lung cancer cells [2]): 30 µM

O=S(=O)(NCCCN1c2ccccc2CCc2ccc(Cl)cc21)c1ccc(OC(F)(F)F)cc1 [Example 30, N-(3-(3-chloro-10,11-dihydro-5H-dibenzo[b,f]azepin-5-yl)propyl)-4-(trifluoromethoxy)benzenesulfonamide]
decrease in tumor volume over two week treatment period (EGFR-L858R/CCSP mice): 60% | graft survival [3]: 18 days

O=S(=O)(NCCCN1c2ccccc2CCc2ccc(Cl)cc21)c1cc(F)cc(F)c1 [Example 13, N-(3-(3-chloro-10,11-dihydro-5H-dibenzo[b,f]azepin-5-yl)propyl)-3,5-difluorobenzenesulfonamide]
IC50 (H1650 lung cancer cells [1]; MTT, 48 h after drug treatment): 18 µM

O=S(=O)(NCCC=C1c2ccccc2Sc2ccccc21)c1ccc(OC(F)(F)F)cc1 [Example 50, N-(3-(9H-thioxanthen-9-ylidene)propyl)-4-(trifluoromethoxy)benzenesulfonamide]
IC50 (H1650 lung cancer cells [1]; MTT, 48 h after drug treatment): ~15 µM

O=S(=O)(N[C@H]1CCC[C@H](N2c3ccccc3CCc3ccccc32)C1)c1ccc(OC(F)(F)F)cc1 (relative stereo) [Example 73 trans, trans-N-(3-(10,11-dihydro-5H-dibenzo[b,f]azepin-5-yl)cyclohexyl)-4-(trifluoromethoxy)benzenesulfonamide]
IC50 (H1650 lung cancer cells [1]; MTT, 48 h after drug treatment): 15 µM

O=S(=O)(NCCCN1c2ccccc2CCc2cccnc21)c1ccc(Cl)cc1 [Example 101, N-(3-(5H-Benzo[b]pyrido[3,2-f]azepin-11(6H)-yl)propyl)-4-chlorobenzenesulfonamide]
IC50 (H1650 lung cancer cells [2]): 25 µM

O=S(=O)(NCCCN1c2ccccc2CCc2ccc(Cl)cc21)c1cnc(Cl)c(Br)c1 [Example 63, 5-Bromo-6-chloro-N-(3-(3-chloro-10,11-dihydro-5H-dibenzo[b,f]azepin-5-yl)propyl)pyridine-3-sulfonamide]
% @ 20 μM (H1650 lung cancer cells [1]; 20 μM, taken from PCT WO2013/025882): 65% @ 20

O=S(=O)(NCCCN1c2ccccc2CCc2ncccc21)c1ccc(Cl)cc1 [Example 103, 4-Chloro-N-(3-(10,11-dihydro-5H-benzo[b]pyrido[2,3-f]azepin-5-yl)propyl)benzenesulfonamide]
IC50 (H1650 lung cancer cells [2]): 30 µM

O=S(=O)(N[C@H]1CCC[C@@H](N2c3ccccc3CCc3ccccc32)C1)c1ccc(OC(F)(F)F)cc1 (relative stereo) [Example 73 cis, cis-N-(3-(10,11-dihydro-5H-dibenzo[b,f]azepin-5-yl)cyclohexyl)-4-(trifluoromethoxy)benzenesulfonamide]
IC50 (H1650 lung cancer cells [1]; MTT, 48 h after drug treatment): 5 µM

O=C(CCCN1CCC(O)(c2ccc(Cl)cc2)CC1)c1ccc(F)cc1 [Haloperidol]
fold increase in iTreg over control (DMSO) wells (CD4 naïve cells): did not induce a statistically significant increase

Cc1ccc(S(=O)(=O)NCCN2c3ccccc3Sc3ccc(Cl)cc32)cc1 [Example 18, N-(2-(2-chloro-10H-phenothiazin-10-yl)pethyl)4-methylbenzenesulfonamide]
IC50 (H1650 lung cancer cells [1]; MTT, 48 h after drug treatment): 24.4 µM
